Experimental findings from patent EP0041615A1, “Use of imidazolyl-vinyl ketones and alcohols as antimicrobial agents” (BAYER AG, priority 1980, dated 1981) are described below.

Experiment [1] relates to Candida-Zellen. Briefly: Antimycotic in-vivo activity (oral) in mouse candidosis. Set-up: species or system Mäuse vom Typ SPF-CF1. To be noted: 50-100 mg/kg each 1 h before and 7 h after i.v. infection, untreated controls about 5 % survival on day 6 p.i. The protocol:
Antimykotische in-vivo-Wirksamkeit (oral) bei Mäuse-Candidose
Mäuse vom Typ SPF-CF1 wurden intravenös mit 1-2 x 10^6 logarithmisch wachsenden Candida-Zellen, die in physiologischer Kochsalzlösung suspendiert waren, infiziert. Eine Stunde vor und sieben Stunden nach der Infektion werden die Tiere mit jeweils 50-100 mg/kg Körpergewicht der Präparate oral behandelt.
Unbehandelte Tiere starben 3 bis 6 Tage post infektionem. Die Ueberlebensrate am 6.Tag post infektionem betrug bei unbehandelten Kontrolltieren etwa 5 %.

The test system of experiment [2] is Dermatophyten und Schimmelpilze; Hefen. Briefly: Antimycotic in-vitro activity, serial dilution test. Type of experiment: cell-based. The conditions noted are these: inoculum 5 x 10^4 germs/ml, 28°C, 24 h (yeasts) or 96 h (dermatophytes, moulds), stated relative to prior-art compound (A). The protocol:
Antimykotische in-vitro-Wirksamkeit
Die in-vitro-Wirksamkeit im Reihenverdünnungstest wird mit Keiminokula von durchschnittlich 5 x 10^4 Keimen /ml Substant durchgeführt. Als Nährmedium dienten: • a) für Dermatophyten und Schimmelpilze: Sabouraud's milieu d'epreuve • b) für Hefen: Isotonic Sensitest-Broth von Oxid.
Die Bebrütungstemperatur berug 28°C; Bebrütungsdauer war 24 Stunden bei Hefen und 96 Stunden bei Dermatophyten und Schimmelpilzen.

Experiment [3] deals with Trichophyton mentagrophytes. The experiment in a line: Antimicrobial in-vivo activity (local), experimental guinea pig trichophytosis model. Details: species or system Meerschweinchen der Rasse Pirbright-white. The conditions noted are these: once daily from day 3 p.i., 1 % solution in dimethyl sulfoxide:glycerol 1:4, result means only slight reddening and isolated scales. The text has this: Antimikrobielle in-vivo-Wirksamkeit (lokal) am Modell der experimetellen Meerschweinchen-Trichophytie
Weiße Meerschweinchen der Rasse Pirbright-white wurden auf dem geschorenen, nicht skarifizierten Rücken mit einer Mikro- und Makrokonidien-Suspension von Trichophyton mentagrophytes infiziert. Die infizierten Tiere wurden, beginnend am 3.Tag p.i., lx täglich mit 1%-iger Lösung der erfindungsgemäßen Präparate (in Dimethylsulfoxid:Glycerin=1:4) lokal behandelt.
Bei unbehandelten Tieren entwickelt sich innerhalb von 12 Tagen p.i. das typische Bild einer Dermatophytose mit Rötung, Schuppung und Haarausfall bis zum totalen Integument-Defekt an der Infektionsstelle.

SMILES strings stand for the structures.

For the compound `CC=C(C(O)C(C)(C)C)n1ccnc1` (stereo not shown) [Beispiel 25], the “Wirkung (Mäuse-Candidose)” value in experiment [1] is “gute bis sehr gute Wirkung”.
`CCC(C)C=C(C(=O)C(C)(C)C)n1ccnc1` (stereo not shown) [Beispiel 8]: in experiment [2], the “antimykotische Wirkung” value is reported as “bessere antimykotische Wirkung”. In experiment [1], the “Wirkung (Mäuse-Candidose)” value is recorded as “gute bis sehr gute Wirkung”. Besides, the “Wirkung (Meerschweinchen-Trichophytie)” value in experiment [3] is recorded as “Wirkung bis gute Wirkung”.
Turning to `CC(C)(C)C=C(C(=O)C(C)(C)C)n1ccnc1` [Beispiel 7], the “antimykotische Wirkung” value in experiment [2] is “bessere antimykotische Wirkung”. For the same compound, the “Wirkung (Mäuse-Candidose)” value in experiment [1] is “gute bis sehr gute Wirkung”.
`CC(C)(C)C(O)C(=CC1CCCCC1)n1ccnc1` (stereo not shown) [Beispiel 37]: in experiment [2], the “antimykotische Wirkung” value is “bessere antimykotische Wirkung”.
`CC(C)(C)C(=O)C(=CC1CCCC1)n1ccnc1` [Beispiel 10]: the “antimykotische Wirkung” value in experiment [2] is recorded as “bessere antimykotische Wirkung”.
With `CCCCCCCC=C(C(O)C(C)(C)C)n1ccnc1` (stereo not shown) [Beispiel 2], the “antimykotische Wirkung” value in experiment [2] is “bessere antimykotische Wirkung”. In experiment [3], the “Wirkung (Meerschweinchen-Trichophytie)” value was “Wirkung bis gute Wirkung”.
On to `CCC(C)C=C(C(O)C(C)(C)C)n1ccnc1` (stereo not shown) [Beispiel 27], for which the “Wirkung (Meerschweinchen-Trichophytie)” value in experiment [3] is recorded as “Wirkung bis gute Wirkung”.
In the case of `CC(C)(C)C(=O)C(=Cc1ccccc1Cl)n1ccnc1` [Verbindung (A), reference compound], the “Wirkung (Mäuse-Candidose)” value in experiment [1] is “keine Wirkung”.
The same measure, in the same setting: under `CC(C)(C)C(O)C(=Cc1ccc(Cl)cc1)n1ccnc1` (stereo not shown) [(B), reference compound] stands “keine Wirkung”.
On to `CC(C)C=C(C(=O)C(C)(C)C)n1ccnc1` [Beispiel 5], for which, in experiment [2], the “antimykotische Wirkung” value is recorded as “bessere antimykotische Wirkung”. Moreover, the “Wirkung (Mäuse-Candidose)” value in experiment [1] is reported as “gute bis sehr gute Wirkung”.
With `CCCCCCCC=C(C(=O)C(C)(C)C)n1ccnc1` [Beispiel 1], the “antimykotische Wirkung” value in experiment [2] is reported as “bessere antimykotische Wirkung”. Also, the “Wirkung (Meerschweinchen-Trichophytie)” value in experiment [3] was “Wirkung bis gute Wirkung”.
As to `CC(C)(C)C(O)C(=CC1CCCC1)n1ccnc1` (stereo not shown) [Beispiel 28], in experiment [2], the “antimykotische Wirkung” value is given as “bessere antimykotische Wirkung”.
Same read-out and setting: for `CC(C)(C)C(O)C(=CC1c2ccccc2-c2ccccc21)n1ccnc1` (stereo not shown) [Beispiel 32] the value was “bessere antimykotische Wirkung”.
